Where a SMILES comes first, the peptide text is derived from it. Bridges are numbered along the chain shown (N, C = ends). [ ]: non-standard residue; d: D form. Phe(3,4,5-F3) = N[C@@H](Cc1cc(F)c(F)c(F)c1)C(=O)O; d(cisHyp) = O=C(O)[C@H]1C[C@@H](O)CN1; NMeF = CN[C@@H](Cc1ccccc1)C(=O)O; dHyp = O=C(O)[C@H]1C[C@H](O)CN1; NMeNle = CCCC[C@H](NC)C(=O)O; Orn = NCCC[C@H](N)C(=O)O; Dab = NCC[C@H](N)C(=O)O; Dap = NC[C@H](N)C(=O)O
What follows are molecules tested against T1, Human PD-L1/PD-1 (Homo sapiens, UniProt Q9NZQ7) (assay: HTRF Human PD-L1/PD-1 binding assay (PD-1-Ig/PD-L1-His)). Conditions: PD-L1-His 10 nM, PD-1-Ig 20 nM; class symbol; read-out: HTRF Human PD-L1/PD-1 Binding Assay IC50 Range.
T1 construct: TVMV protease cleavage site (C); made in house; host or cells: HEK293T cells
Summary of the method: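 Soluble HEK293T-expressed proteins: hPD-L1-His 10 nM, hPD-1-Ig 20 nM final. Cpd + PD-L1 15 min, + PD-1 15 min, + Eu anti-Ig 1 nM/APC anti-His 20 nM 30 min. Buffer dPBS, 0.1% BSA, 0.05% Tween-20. TR-FRET 665/620.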

T1 sequence (Q9NZQ7 with tags, fused parts or gaps): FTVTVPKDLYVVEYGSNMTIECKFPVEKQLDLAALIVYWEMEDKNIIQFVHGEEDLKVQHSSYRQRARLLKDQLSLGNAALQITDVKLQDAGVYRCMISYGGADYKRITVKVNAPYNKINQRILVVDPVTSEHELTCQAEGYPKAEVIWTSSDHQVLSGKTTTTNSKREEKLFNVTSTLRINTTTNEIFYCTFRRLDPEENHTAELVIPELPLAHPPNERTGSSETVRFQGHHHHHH

IC50 [nM] | SMILES
10 to 99.9 | CCCC[C@H]1C(=O)N2C[C@H](O)C[C@@H]2C(=O)N[C@@H](CC(=O)O)C(=O)N[C@@H](C(C)C)C(=O)N(C)[C@@H](Cc2ccccc2)C(=O)N[C@@H](CCC(N)=O)C(=O)N2C[C@H](O)C[C@@H]2C(=O)N[C@@H](Cc2c[nH]c3ccccc23)C(=O)N[C@@H](Cc2ccc(O)cc2)C(=O)N[C@@H](CCC(=O)O)C(=O)N[C@H](C(=O)NCC(N)=O)CSCC(=O)N[C@@H](Cc2cc(F)c(F)c(F)c2)C(=O)N(C)[C@@H](Cc2ccccc2)C(=O)N1C [Example 9357] ({CH2CO}-[Phe(3,4,5-F3)][NMeF][NMeNle][d(cisHyp)]DV[NMeF]Q[d(cisHyp)]WYECG-NH2; thioether N-13)
10 to 99.9 | CCCC[C@H]1C(=O)N2C[C@H](O)C[C@@H]2C(=O)N[C@@H](CC(=O)O)C(=O)N[C@@H](C(C)C)C(=O)N(C)[C@@H](Cc2ccccc2)C(=O)N[C@@H](CCC(N)=O)C(=O)N2C[C@H](O)C[C@@H]2C(=O)N[C@@H](Cc2c[nH]c3ccccc23)C(=O)N[C@@H](Cc2ccc(O)cc2)C(=O)N[C@@H](CC(=O)O)C(=O)N[C@H](C(=O)NCC(N)=O)CSCC(=O)N[C@@H](Cc2cc(F)c(F)c(F)c2)C(=O)N(C)[C@@H](Cc2ccccc2)C(=O)N1C [Example 9358] ({CH2CO}-[Phe(3,4,5-F3)][NMeF][NMeNle][d(cisHyp)]DV[NMeF]Q[d(cisHyp)]WYDCG-NH2; thioether N-13)
1 to 9.9 | CCCC[C@H]1C(=O)N2C[C@H](O)C[C@@H]2C(=O)N[C@@H](CC(=O)O)C(=O)N[C@@H](C(C)C)C(=O)N(C)[C@@H](Cc2ccccc2)C(=O)N[C@@H](CCC(N)=O)C(=O)N2C[C@H](O)C[C@@H]2C(=O)N[C@@H](Cc2c[nH]c3ccccc23)C(=O)N[C@@H](Cc2ccc(O)cc2)C(=O)N[C@@H](CC(N)=O)C(=O)N[C@H](C(=O)NCC(N)=O)CSCC(=O)N[C@@H](Cc2cc(F)c(F)c(F)c2)C(=O)N(C)[C@@H](Cc2ccccc2)C(=O)N1C [Example 9360] ({CH2CO}-[Phe(3,4,5-F3)][NMeF][NMeNle][d(cisHyp)]DV[NMeF]Q[d(cisHyp)]WYNCG-NH2; thioether N-13)
1 to 9.9 | CCCC[C@H]1C(=O)N2C[C@H](O)C[C@@H]2C(=O)N[C@@H](CC(=O)O)C(=O)N[C@@H](C(C)C)C(=O)N(C)[C@@H](Cc2ccccc2)C(=O)N[C@@H](CC(N)=O)C(=O)N2C[C@H](O)C[C@@H]2C(=O)N[C@@H](Cc2c[nH]c3ccccc23)C(=O)N[C@@H](Cc2ccc(O)cc2)C(=O)N[C@@H](CC(C)C)C(=O)N[C@H](C(=O)NCC(N)=O)CSCC(=O)N[C@@H](Cc2cc(F)c(F)c(F)c2)C(=O)N(C)[C@@H](Cc2ccccc2)C(=O)N1C [Example 9361] ({CH2CO}-[Phe(3,4,5-F3)][NMeF][NMeNle][d(cisHyp)]DV[NMeF]N[d(cisHyp)]WYLCG-NH2; thioether N-13)
1 to 9.9 | CCCC[C@H]1C(=O)N2C[C@H](O)C[C@@H]2C(=O)N[C@@H](CC(=O)O)C(=O)N[C@@H](C(C)C)C(=O)N(C)[C@@H](Cc2ccccc2)C(=O)N[C@@H](CC(N)=O)C(=O)N2C[C@H](O)C[C@@H]2C(=O)N[C@@H](Cc2c[nH]c3ccccc23)C(=O)N[C@@H](Cc2ccc(O)cc2)C(=O)N[C@@H](CCCCN)C(=O)N[C@H](C(=O)NCC(N)=O)CSCC(=O)N[C@@H](Cc2cc(F)c(F)c(F)c2)C(=O)N(C)[C@@H](Cc2ccccc2)C(=O)N1C [Example 9362] ({CH2CO}-[Phe(3,4,5-F3)][NMeF][NMeNle][d(cisHyp)]DV[NMeF]N[d(cisHyp)]WYKCG-NH2; thioether N-13)
1 to 9.9 | CCCC[C@H]1C(=O)N2C[C@H](O)C[C@@H]2C(=O)N[C@@H](CC(=O)O)C(=O)N[C@@H](C(C)C)C(=O)N(C)[C@@H](Cc2ccccc2)C(=O)N[C@@H](CC(N)=O)C(=O)N2C[C@H](O)C[C@@H]2C(=O)N[C@@H](Cc2c[nH]c3ccccc23)C(=O)N[C@@H](Cc2ccc(O)cc2)C(=O)N[C@@H](CCCN)C(=O)N[C@H](C(=O)NCC(N)=O)CSCC(=O)N[C@@H](Cc2cc(F)c(F)c(F)c2)C(=O)N(C)[C@@H](Cc2ccccc2)C(=O)N1C [Example 9363] ({CH2CO}-[Phe(3,4,5-F3)][NMeF][NMeNle][d(cisHyp)]DV[NMeF]N[d(cisHyp)]WY[Orn]CG-NH2; thioether N-13)
10 to 99.9 | CCCC[C@H]1C(=O)N2C[C@H](O)C[C@@H]2C(=O)N[C@@H](CC(=O)O)C(=O)N[C@@H](C(C)C)C(=O)N(C)[C@@H](Cc2ccccc2)C(=O)N[C@@H](CC(N)=O)C(=O)N2C[C@H](O)C[C@@H]2C(=O)N[C@@H](Cc2c[nH]c3ccccc23)C(=O)N[C@@H](Cc2ccc(O)cc2)C(=O)N[C@@H](CCN)C(=O)N[C@H](C(=O)NCC(N)=O)CSCC(=O)N[C@@H](Cc2cc(F)c(F)c(F)c2)C(=O)N(C)[C@@H](Cc2ccccc2)C(=O)N1C [Example 9364] ({CH2CO}-[Phe(3,4,5-F3)][NMeF][NMeNle][d(cisHyp)]DV[NMeF]N[d(cisHyp)]WY[Dab]CG-NH2; thioether N-13)
10 to 99.9 | CCCC[C@H]1C(=O)N2C[C@H](O)C[C@@H]2C(=O)N[C@@H](CC(=O)O)C(=O)N[C@@H](C(C)C)C(=O)N(C)[C@@H](Cc2ccccc2)C(=O)N[C@@H](CC(N)=O)C(=O)N2C[C@H](O)C[C@@H]2C(=O)N[C@@H](Cc2c[nH]c3ccccc23)C(=O)N[C@@H](Cc2ccc(O)cc2)C(=O)N[C@@H](CN)C(=O)N[C@H](C(=O)NCC(N)=O)CSCC(=O)N[C@@H](Cc2cc(F)c(F)c(F)c2)C(=O)N(C)[C@@H](Cc2ccccc2)C(=O)N1C [Example 9365] ({CH2CO}-[Phe(3,4,5-F3)][NMeF][NMeNle][d(cisHyp)]DV[NMeF]N[d(cisHyp)]WY[Dap]CG-NH2; thioether N-13)
10 to 99.9 | CCCC[C@H]1C(=O)N2C[C@H](O)C[C@@H]2C(=O)N[C@@H](CC(=O)O)C(=O)N[C@@H](C(C)C)C(=O)N(C)[C@@H](Cc2ccccc2)C(=O)N[C@@H](CC(N)=O)C(=O)N2C[C@H](O)C[C@@H]2C(=O)N[C@@H](Cc2c[nH]c3ccccc23)C(=O)N[C@@H](Cc2ccc(O)cc2)C(=O)N[C@@H](CCC(=O)O)C(=O)N[C@H](C(=O)NCC(N)=O)CSCC(=O)N[C@@H](Cc2cc(F)c(F)c(F)c2)C(=O)N(C)[C@@H](Cc2ccccc2)C(=O)N1C [Example 9366] ({CH2CO}-[Phe(3,4,5-F3)][NMeF][NMeNle][d(cisHyp)]DV[NMeF]N[d(cisHyp)]WYECG-NH2; thioether N-13)
10 to 99.9 | CCCC[C@H]1C(=O)N2C[C@H](O)C[C@@H]2C(=O)N[C@@H](CC(=O)O)C(=O)N[C@@H](C(C)C)C(=O)N(C)[C@@H](Cc2ccccc2)C(=O)N[C@@H](Cc2ccc(O)cc2)C(=O)N2C[C@H](O)C[C@@H]2C(=O)N[C@@H](Cc2c[nH]c3ccccc23)C(=O)N[C@@H](Cc2ccc(O)cc2)C(=O)N[C@@H](CC(C)C)C(=O)N[C@H](C(=O)NCC(N)=O)CSCC(=O)N[C@@H](Cc2cc(F)c(F)c(F)c2)C(=O)N(C)[C@@H](Cc2ccccc2)C(=O)N1C [Example 9367] ({CH2CO}-[Phe(3,4,5-F3)][NMeF][NMeNle][d(cisHyp)]DV[NMeF]Y[d(cisHyp)]WYLCG-NH2; thioether N-13)
1 to 9.9 | CCCC[C@H]1C(=O)N2C[C@@H](O)C[C@@H]2C(=O)N[C@@H](CC(=O)O)C(=O)N[C@@H](C(C)C)C(=O)N(C)[C@@H](Cc2ccccc2)C(=O)N[C@@H](Cc2ccc(O)cc2)C(=O)N2C[C@H](O)C[C@@H]2C(=O)N[C@@H](Cc2c[nH]c3ccccc23)C(=O)N[C@@H](Cc2ccc(O)cc2)C(=O)N[C@@H](CCCN)C(=O)N[C@H](C(=O)NCC(N)=O)CSCC(=O)N[C@@H](Cc2cc(F)c(F)c(F)c2)C(=O)N(C)[C@@H](Cc2ccccc2)C(=O)N1C [Example 9368] ({CH2CO}-[Phe(3,4,5-F3)][NMeF][NMeNle][dHyp]DV[NMeF]Y[d(cisHyp)]WY[Orn]CG-NH2; thioether N-13)
1 to 9.9 | CCCC[C@H]1C(=O)N2C[C@@H](O)C[C@@H]2C(=O)N[C@@H](CC(=O)O)C(=O)N[C@@H](C(C)C)C(=O)N(C)[C@@H](Cc2ccccc2)C(=O)N[C@@H](CCC(=O)O)C(=O)N2C[C@H](O)C[C@@H]2C(=O)N[C@@H](Cc2c[nH]c3ccccc23)C(=O)N[C@@H](Cc2ccc(O)cc2)C(=O)N[C@@H](CC(C)C)C(=O)N[C@H](C(=O)NCC(N)=O)CSCC(=O)N[C@@H](Cc2cc(F)c(F)c(F)c2)C(=O)N(C)[C@@H](Cc2ccccc2)C(=O)N1C [Example 9369] ({CH2CO}-[Phe(3,4,5-F3)][NMeF][NMeNle][dHyp]DV[NMeF]E[d(cisHyp)]WYLCG-NH2; thioether N-13)

Same assay, conditions: PD-L1-His 10 nM, PD-1-Ig 20 nM; read-out: HTRF Human PD-L1/PD-1 Binding Assay IC50

IC50 [nM] | SMILES
151 | CCCC[C@H]1C(=O)N2C[C@H](O)C[C@@H]2C(=O)N[C@@H](CC(=O)O)C(=O)N[C@@H](C(C)C)C(=O)N(C)[C@@H](Cc2ccccc2)C(=O)N[C@@H](CCC(N)=O)C(=O)N2C[C@H](O)C[C@@H]2C(=O)N[C@@H](Cc2c[nH]c3ccccc23)C(=O)N[C@@H](Cc2ccc(O)cc2)C(=O)N[C@@H](CN)C(=O)N[C@H](C(=O)NCC(N)=O)CSCC(=O)N[C@@H](Cc2cc(F)c(F)c(F)c2)C(=O)N(C)[C@@H](Cc2ccccc2)C(=O)N1C [Example 9356] ({CH2CO}-[Phe(3,4,5-F3)][NMeF][NMeNle][d(cisHyp)]DV[NMeF]Q[d(cisHyp)]WY[Dap]CG-NH2; thioether N-13)
5.7 | CCCC[C@H]1C(=O)N2C[C@@H](O)C[C@@H]2C(=O)N[C@@H](CC(=O)O)C(=O)N[C@@H](C(C)C)C(=O)N(C)[C@@H](Cc2ccccc2)C(=O)N[C@@H](CCC(=O)O)C(=O)N2C[C@H](O)C[C@@H]2C(=O)N[C@@H](Cc2c[nH]c3ccccc23)C(=O)N[C@@H](Cc2ccc(O)cc2)C(=O)N[C@@H](CCCN)C(=O)N[C@H](C(=O)NCC(N)=O)CSCC(=O)N[C@@H](Cc2cc(F)c(F)c(F)c2)C(=O)N(C)[C@@H](Cc2ccccc2)C(=O)N1C [Example 9370] ({CH2CO}-[Phe(3,4,5-F3)][NMeF][NMeNle][dHyp]DV[NMeF]E[d(cisHyp)]WY[Orn]CG-NH2; thioether N-13)

Source: patent publication US10538555B2, “Macrocyclic inhibitors of the PD-1/PD-L1 and CD80(B7-1)/PD-L1 protein/protein interactions” (BRISTOL-MYERS SQUIBB COMPANY, priority 2014, dated 2020)
